Experimental data reported in PubChem BioAssay AID328 (DTP/NCI, 2004).
Where “and” joins values, the source holds several entries; their conditions need not be identical. Equal entries are not always repeated. Inconclusive results and toxic doses are left out. How the source made its calls: active means survival T/C of 150% or more; inactive means T/C below 125% in these data. Starred links: 1 amine or outer side, 2 acyl side, 3 side chain; linkers in the order of their positions; H or OH if unused. Positions of bridges follow the written chain, without caps; N, C: chain ends. Non-standard residues stand in square brackets, D forms with d. Residues, ends and D or L forms follow the SMILES beside them. Chains are numbered I, II in the order given. Actinocin(9to1) = Cc1c2oc3c(C)ccc(C(=O)[*:1])c3nc-2c(C(=O)[*:2])c(N)c1=O; aThr = C[C@H](O)[C@H](N)C(=O)O; NMeV = CN[C@H](C(=O)O)C(C)C; Sar = CNCC(=O)O

System: BDF1 mice, P388 leukemia ip, median survival T/C
Test: NCI In Vivo Anticancer Drug Screen. Data for tumor model P388 Leukemia (intraperitoneal) in B6D2F1 (BDF1) mice
Conditions: endpoint: median survival time, higher = longer survival
Method in brief: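 Transplantable tumour in mice; compound vs vehicle dosing; survival scored; ratio of treated to control reported.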

Measured: T/C

Cc1c2oc3c(C)ccc(C(=O)N[C@@H]4C(=O)N[C@H](C(C)C)C(=O)N5CCC[C@H]5C(=O)N(C)CC(=O)N(C)[C@@H](C(C)C)C(=O)O[C@H]4C)c3nc-2c(C(=O)N[C@@H]2C(=O)N[C@H](C(C)C)C(=O)N3CCC[C@H]3C(=O)N(C)CC(=O)N(C)[C@@H](C(C)C)C(=O)O[C@H]2C)c(N)c1=O (I: [aThr][dV]P[Sar][NMeV] / II: [aThr][dV]P[Sar][NMeV]; ester I:1-I:C, II:1-II:C; linker I:N-II:N via Actinocin(9to1))
292 % of control and 99 % of control: dose: 75.0 micrograms/kg/injection, schedule: Q01DX009 (ip), vehicle: saline + alcohol
inactive: dose: 35.0 micrograms/kg/injection, schedule: Q03HX024 (ip), vehicle: saline 100 % of control | dose: 75.0 micrograms/kg/injection, schedule: Q01DX009 (ip), vehicle: saline 100 % of control | dose: 100.0 micrograms/kg/injection, schedule: Q01DX009 (ip), vehicle: saline 91 % of control and 107 % of control | dose: 100.0 micrograms/kg/injection, schedule: Q01DX010 (ip), vehicle: saline 105 % of control and 120 % of control | dose: 200.0 micrograms/kg/injection, schedule: Q01DX010 (ip), vehicle: saline 90 % of control | dose: 600.0 micrograms/kg/injection, schedule: Q04DX003 (ip), vehicle: saline + alcohol 118 % of control
active: dose: 25.0 micrograms/kg/injection, schedule: Q03HX024 (ip), vehicle: saline 263 % of control | dose: 25.0 micrograms/kg/injection, schedule: Q04DX003 (ip), vehicle: saline 154 % of control | dose: 30.0 micrograms/kg/injection, schedule: Q03HX024 (ip), vehicle: saline 250 % of control | dose: 36.0 micrograms/kg/injection, schedule: Q01DX009 (ip), vehicle: saline + alcohol 241 % of control and 314 % of control | dose: 37.5 micrograms/kg/injection, schedule: Q01DX009 (ip), vehicle: saline + alcohol 228 % of control and 169 % of control | dose: 38.9 micrograms/kg/injection, schedule: Q04DX003 (ip), vehicle: saline + alcohol 174 % of control | dose: 50.0 micrograms/kg/injection, schedule: Q01DX001 (ip), vehicle: saline 154 % of control | dose: 50.0 micrograms/kg/injection, schedule: Q01DX009 (ip), vehicle: saline + alcohol 281 % of control and 294 % of control and 191 % of control | dose: 50.0 micrograms/kg/injection, schedule: Q01DX009 (ip), vehicle: saline 268 % of control and 271 % of control and 352 % of control | dose: 50.0 micrograms/kg/injection, schedule: Q01DX010 (ip), vehicle: other 295 % of control | dose: 50.0 micrograms/kg/injection, schedule: Q01DX010 (ip), vehicle: saline 295 % of control and 300 % of control | dose: 50.0 micrograms/kg/injection, schedule: Q04DX003 (ip), vehicle: saline 177 % of control | dose: 60.0 micrograms/kg/injection, schedule: Q01DX009 (ip), vehicle: saline + alcohol 314 % of control and 348 % of control | dose: 64.8 micrograms/kg/injection, schedule: Q04DX003 (ip), vehicle: saline + alcohol 168 % of control | dose: 75.0 micrograms/kg/injection, schedule: Q04DX003 (ip), vehicle: saline + alcohol 247 % of control | dose: 75.0 micrograms/kg/injection, schedule: Q04DX003 (ip), vehicle: saline 257 % of control and 182 % of control | dose: 75.0 micrograms/kg/injection, schedule: Q04DX003 (ip), vehicle: water 183 % of control | dose: 100.0 micrograms/kg/injection, schedule: Q01DX001 (ip), vehicle: saline 168 % of control | dose: 100.0 micrograms/kg/injection, schedule: Q01DX009 (ip), vehicle: water 336 % of control | dose: 100.0 micrograms/kg/injection, schedule: Q04DX003 (ip), vehicle: saline 231 % of control | dose: 112.5 micrograms/kg/injection, schedule: Q04DX003 (ip), vehicle: saline + alcohol 274 % of control and 161 % of control | dose: 150.0 micrograms/kg/injection, schedule: Q04DX003 (ip), vehicle: saline 273 % of control and 306 % of control | dose: 200.0 micrograms/kg/injection, schedule: Q01DX001 (ip), vehicle: saline 177 % of control | dose: 225.0 micrograms/kg/injection, schedule: Q04DX003 (ip), vehicle: saline + alcohol 290 % of control and 327 % of control and 182 % of control | dose: 300.0 micrograms/kg/injection, schedule: Q04DX003 (ip), vehicle: saline 361 % of control | dose: 300.0 micrograms/kg/injection, schedule: Q04DX003 (ip), vehicle: water 232 % of control | dose: 400.0 micrograms/kg/injection, schedule: Q01DX001 (ip), vehicle: saline 227 % of control | dose: 400.0 micrograms/kg/injection, schedule: Q04DX003 (ip), vehicle: saline 236 % of control | dose: 600.0 micrograms/kg/injection, schedule: Q04DX003 (ip), vehicle: water 189 % of control
301 % of control and 106 % of control: dose: 50.0 micrograms/kg/injection, schedule: Q01DX009 (ip), vehicle: water
